From ChEMBL document CHEMBL1155853, “N-(thiazol-2-yl)-2-thiophene carboxamide derivatives as Abl inhibitors identified by a pharmacophore-based database screening of commercially available compounds” (Bioorg Med Chem Lett, 2008) come the findings set out here.

The target of this test is Tyrosine-protein kinase ABL1 (Homo sapiens, UniProt P00519). Briefly: Inhibition of Abl kinase by cell free assay.
Sequence of Tyrosine-protein kinase ABL1 (P00519 whole entry): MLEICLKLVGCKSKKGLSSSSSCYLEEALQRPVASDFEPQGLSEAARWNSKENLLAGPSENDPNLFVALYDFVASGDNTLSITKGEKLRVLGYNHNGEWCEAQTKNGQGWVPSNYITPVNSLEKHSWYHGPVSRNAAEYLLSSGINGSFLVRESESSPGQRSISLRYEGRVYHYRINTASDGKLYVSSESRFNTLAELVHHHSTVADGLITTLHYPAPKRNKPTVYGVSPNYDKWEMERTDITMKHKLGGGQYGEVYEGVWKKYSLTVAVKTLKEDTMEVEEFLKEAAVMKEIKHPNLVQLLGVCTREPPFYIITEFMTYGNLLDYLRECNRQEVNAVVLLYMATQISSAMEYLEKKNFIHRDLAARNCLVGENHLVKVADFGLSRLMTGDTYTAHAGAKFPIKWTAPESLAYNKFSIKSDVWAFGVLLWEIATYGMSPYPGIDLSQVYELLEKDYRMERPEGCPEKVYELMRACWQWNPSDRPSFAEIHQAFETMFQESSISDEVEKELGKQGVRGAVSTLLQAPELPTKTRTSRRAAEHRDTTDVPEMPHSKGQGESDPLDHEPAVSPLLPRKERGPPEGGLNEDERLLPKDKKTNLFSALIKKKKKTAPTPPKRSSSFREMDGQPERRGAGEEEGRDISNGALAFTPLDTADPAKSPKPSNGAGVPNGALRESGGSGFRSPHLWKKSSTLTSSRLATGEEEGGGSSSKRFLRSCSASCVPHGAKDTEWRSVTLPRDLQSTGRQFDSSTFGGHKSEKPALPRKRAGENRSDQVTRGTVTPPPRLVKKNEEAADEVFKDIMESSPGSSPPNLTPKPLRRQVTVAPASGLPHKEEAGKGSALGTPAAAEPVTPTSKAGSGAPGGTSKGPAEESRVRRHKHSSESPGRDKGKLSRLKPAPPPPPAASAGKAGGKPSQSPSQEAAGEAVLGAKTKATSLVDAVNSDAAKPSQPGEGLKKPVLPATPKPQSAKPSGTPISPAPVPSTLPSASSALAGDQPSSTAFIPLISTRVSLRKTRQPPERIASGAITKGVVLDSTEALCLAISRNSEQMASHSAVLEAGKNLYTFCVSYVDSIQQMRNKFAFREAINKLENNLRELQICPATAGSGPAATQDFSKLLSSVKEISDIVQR

For the compound `O=C(Nc1ncc(Cc2ccc(Cl)cc2Cl)s1)c1cccs1`, affinity was put at a Ki of 3470 nM.

The compound `Cc1cccc(Cc2cnc(NC(=O)c3cccs3)s2)c1` displayed a Ki of 59 nM.

Take `O=C(Nc1ncc(Cc2cc(Cl)ccc2Cl)s1)c1cccs1`: the affinity, expressed as Ki, was 50 nM.

In turn, `O=C(Nc1ncc(Cc2cccc(Cl)c2)s1)c1cccs1` came in with an inhibition constant Ki of 97 nM.

As to `O=C(Nc1ncc(Cc2ccccc2)s1)c1cccs1`, the Ki was determined as 90 nM.

The compound `O=C(Nc1ncc(-c2ccc(Cl)cc2)s1)c1cccs1` gave a Ki of 791 nM.

On to `O=C(Nc1ncc(-c2ccc(F)cc2)s1)c1cccs1`, for which the Ki is 1650 nM.

For the compound `O=C(Nc1ncc(Cc2ccc(F)cc2)s1)c1cccs1`, the affinity corresponds to a Ki of 130 nM.

Compound `COc1ccc2c(c1)Cc1sc(NC(=O)c3cccs3)nc1-2` came in with a Ki of 68 nM.

`O=C(Nc1ncc(Cc2ccc(Cl)cc2)s1)c1cccs1`: the Ki came to 624 nM.

As to `Cc1ccc(Cc2cnc(NC(=O)c3cccs3)s2)cc1`, the affinity corresponds to a Ki of 249 nM.

`O=C(Nc1ncc(Cc2ccccc2Cl)s1)c1cccs1` came in with an inhibition constant Ki of 245 nM.

`O=C(Nc1ncc(Cc2cccc(C(F)(F)F)c2)s1)c1cccs1` showed a Ki of 136 nM.

`O=C(Nc1nnc(Cc2ccccc2)s1)c1cccs1`: the Ki amounted to 360 nM.

In turn, `O=C(Nc1ncc(Cc2ccccc2F)s1)c1cccs1` had a Ki of 170 nM.

In turn, `COc1ccc(Cc2cnc(NC(=O)c3cccs3)s2)cc1` yielded a Ki of 16 nM.

As for `O=C(Nc1nnc(COc2ccccc2)s1)c1cccs1`, the inhibition constant (Ki) is 278 nM.

Compound `O=C(Nc1ncc(Cc2cc(C(F)(F)F)ccc2Cl)s1)c1cccs1` registered a Ki of 845 nM.

One may read the Ki as the equilibrium dissociation constant of an inhibitor or competing ligand from its target. Read a low Ki as a stronger hold on the target.
